Values of other authors as cited in patent US12161733B2, “Chemical conjugates of Evans Blue derivatives and their use as radiotherapy and imaging agents for targeting prostate cancer” (THE UNITED STATES OF AMERICA, AS REPRESENTED BY THE …, priority 2018, dated 2024).

Tested on: prostate cancer patients

O=C([O-])CN1CCN(CC(=O)[O-])CCN(CC(=O)NCC2CCC(C(=O)N[C@@H](Cc3ccc4ccccc4c3)C(=O)NCCCC[C@H](NC(=O)N[C@@H](CCC(=O)O)C(=O)O)C(=O)O)CC2)CCN(CC(=O)[O-])CC1.[177Lu+3] (some centres unmarked) [^177Lu-PSMA-617]
side effects (long-term toxicity unknown): only stage 1-2 hematologic toxicities and sporadically mild xerostomia and fatigue
partial response rates (up to 3 cycles, response limited to as few as several weeks in some patients): 70%-80%
